According to patent US8153773B2, “Synthesis and use of anti-reverse phosphorothioate analogs of the messenger RNA cap” (Board of Supervisors of Louisiana State University and …, priority 2007, dated 2012):

Legend:
murine eIF4E (28-217) = biological target: T1, murine eIF4E (28-217) (Mus musculus, UniProt P63073); assay: Binding affinities for eIF4E by fluorescence quenching; conditions: murine eIF4E (28-217); for KAS: equilibrium association constant, fluorescence quenching; for ΔG°: binding free energy calculated from KAS
T1 construct: (28-217) to phosphorothioate cap analogs, as determined
T1 sequence (P63073 28-217): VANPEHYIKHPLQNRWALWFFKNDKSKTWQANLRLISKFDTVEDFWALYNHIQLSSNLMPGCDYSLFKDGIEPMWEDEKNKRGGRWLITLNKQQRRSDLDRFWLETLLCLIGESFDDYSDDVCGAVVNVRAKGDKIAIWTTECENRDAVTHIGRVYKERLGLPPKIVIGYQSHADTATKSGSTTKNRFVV
Protocol: Binding affinities of S analogs for murine eIF4E were determined by fluorescence quenching. Fluorescence titration measurements were carried out on an LS-50B spectrofluorometer (Perkin Elmer Co.) in 50 mM HEPES/KOH (pH 7.2), 100 mM KCl, 0.5 mM EDTA, 1 mM DTT at 20.0±0.2° C. Aliquots of 1 μl increasing concentration of cap analogue solutions were added to 1.4 ml of […] solutions. Fluorescence intensities (excitation at 280 nm with 2.5 nm bandwidth and detection at 337 nm with 4 nm bandwidth and 290 nm cut-off filter) were corrected taking into account sample dilution and the inner filter effect. Equilibrium association constants (KAS) were determined by fitting the theoretical dependence of the fluorescence intensity on the total concentration of cap analogue to the experimental data points according to equation described previously (See A. Niedzwiecka et al., “Biophysical studies of eIF4E cap-binding protein: recognition of mRNA 5′ cap structure and synthetic fragments of eIF4G and 4E-BP1 proteins,” J. Mol. Biol., vol. 319, pp. 615-635 (2002)). The concentration of protein was fitted as a free parameter of equilibrium equation showing amount of “active” protein. The final KAS was calculated as a weighted average of three to ten independent titrations, with the weights taken as the reciprocals of the numerical standard deviations squared. Numerical nonlinear least-squares regression analysis was performed using ORGIN 6.0 (Microcal Software Inc., USA). The Gibbs free energy of binding was calculated from the KAS value according to the standard equation ΔG°=−RTlnKAS.

hDcp2 = hDcp2 (Homo sapiens, UniProt Q8IU60); assay: In vitro RNA decapping assay with recombinant hDcp2; format: biochemical; conditions: capped 32P-labeled short RNA, recombinant hDcp2, anion exchange HPLC (FIG. 6)
Protocol: Dcp2 activity was measured with capped 48-nt oligonucleotides as substrates, a truncated form of luciferase mRNA (48 nucleotides). GST-hDcp2 was expressed in Escherichia coli and purified as described by Z. Wang et al., “The hDcp2 protein is a mammalian mRNA decapping enzyme,” Proc. Natl. Acad. Sci. U.S.A., vol. 99, pp. 12663-12668 (2002). Capped oligonucleotides were first subjected to digestion with GST-hDcp2 at 37° C. for 2 h in decapping buffer (10 mM Tris-HCl, pH 7.5, 100 mM potassium acetate, 2 mM magnesium acetate, 0.5 mM MnCl2, 2 mM dithiothreitol, and 0.1 mM spermine). See C. Piccirillo et al., “Functional characterization of the mammalian mRNA decapping enzyme hDcp2,” RNA, vol. 9, pp. 1138-1147 (2003). The reaction mixture was then extracted once with an equal volume of phenol and twice with chloroform, and RNA was precipitated with ethanol. Products of the decapping reaction were further digested with a cocktail of ribonucleases (RiboShredder; Epicentre) at 37° C. for 1 h. The products were resolved by anion-exchange HPLC on a 4.6×250-mm Partisil 10SAX/25 column (Whatman). The gradient consisted of water for 1 min, a linear gradient to 112 mM KH2PO4, pH 4.5, for 20 min, a linear gradient of 112-450 mM KH2PO4 for 15 min, a linear gradient of 450 mM to 1.5 M KH2PO4 for 15 min, and isocratic elution at 1.5 M of KH2PO4 for 9 min, all at a flow rate 1 ml/min.
We tested oligonucleotides capped with either of S-ARCAs for hydrolysis by recombinant hDcp2 to test whether mRNA capped with the various diastereomers of m2^7,2′-OGpppsG and m2^7,2′-OGppspG would differ in their sensitivity to cleavage by Dcp1/Dcp2. See generally Z. Wang et al., “The hDcp2 protein is a mammalian mRNA decapping enzyme,” Proc. Natl. Acad. Sci. U.S.A., vol. 99, pp. 12663-12668 (2002), and Z. Wang et al., “An mRNA Stability Complex Functions with Poly(A)-Binding Protein To Stabilize mRNA In Vitro”, Mol. Cell. Biol., vol. 19, pp. 4552-4560 (1999). Cap analogs used were initially unlabeled, so to follow the products of the digestion reaction we synthesized capped oligonucleotides in the presence of [α-^32P]GTP and a DNA template in which G was the first ribonucleotide specified after the promoter. The oligonucleotides capped with either of the S-ARCAs were subjected to Dcp2 digestion in vitro, after which the products were further digested with a cocktail of ribonucleases (RiboShredder from Epicenter). Any nucleotide on the 5′ side of a G residue acquired a ^32P-labeled 3′-phosphate group after ribonuclease digestion by nearest-neighbor transfer. Anion exchange chromatography was then used to resolve the labeled 3′-nucleoside monophosphates (3′-NMP*), at internal positions in the RNA, from labeled 5′-terminal products (FIG. 6). The latter comprise p3 Gp* derived from uncapped transcripts and m2^7,2′-OGp3 Gp* (when m2^7,2′-OGp3G was used), or pGp* resulting from capped RNA resistant or nonresistant to enzymatic cleavage, respectively. All cap analogs used were ARCAs, which ensured that they were incorporated into RNA exclusively in the correct orientation. This further guaranteed that only one 5′-terminal product (m2^7,2′-OGp3 Gp*) was observed upon ribonuclease treatment. Uncapped RNA is not a substrate for Dcp2, which explains why p3 Gp* product was observed after Dcp2 digestion.
See E. Grudzien et al., “Differential inhibition of mRNA degradation pathways by novel cap analogs,” J. Biol. Chem., vol. 281, pp. 1857-1867 (2006).

DcpS [1] = biological target: T2, DcpS (Homo sapiens, UniProt Q96C86); assay: Enzymatic hydrolysis by human DcpS; format: biochemical; set-up: key: the analogs assigned as resistant remained completely undigested under the applied conditions; the analogs assigned as hydrolyzed were hydrolyzed by DcpS with efficiency comparable to the respective unmodified parent compound; conditions: conditions giving complete degradation of unmodified parent within 40-90 min, RP HPLC
T2 sequence (Q96C86 1-337): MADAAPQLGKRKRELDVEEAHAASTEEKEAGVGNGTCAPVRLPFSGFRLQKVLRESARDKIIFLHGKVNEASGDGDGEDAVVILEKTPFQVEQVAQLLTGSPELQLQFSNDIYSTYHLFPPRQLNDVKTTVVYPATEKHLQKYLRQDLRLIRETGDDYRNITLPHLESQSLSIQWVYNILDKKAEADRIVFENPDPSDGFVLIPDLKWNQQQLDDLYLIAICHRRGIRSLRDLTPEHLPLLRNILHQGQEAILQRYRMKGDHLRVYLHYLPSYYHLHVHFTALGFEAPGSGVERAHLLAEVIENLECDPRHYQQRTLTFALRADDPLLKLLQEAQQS
Protocol: (§1) Human and nematode DcpS were expressed in Escherichia coli according to the procedures described previously (L. S. Cohen et al., “Nematode m7 GpppG and m3(2,2,7)GpppG decapping: activities in Ascaris embryos and characterization of C. elegans scavenger DcpS,” RNA, vol. 10, pp. 1609-1624 (2004)). Both proteins were stored at −80° C. in 20 mM Tris buffer, pH 7.5, containing 50 mM KCl, 0.2 mM EDTA, 1 mM DTT, 0.5 mM PMSF, and 20% glycerol. An appropriate cap analog at 1 mM concentration was treated with 5.0 or 7.0 μl of DcpS (from human or C. elegans, respectively) in 500 μl of 50 mM TRIS buffer, pH=7.9, containing 20 mM of MgCl2 and 60 mM of (NH4)2SO4 at 37° C. for 60-90 min. Every 15-20 min a 100 μl sample was collected from the reaction mixture and deactivated by incubation in 90° C. for 3 min. Collected samples were analyzed without further treatment by analytical RP HPLC using a linear gradient of methanol in 0.1 M KH2PO4, pH=6.0, from 0-50% within 15 min and UV-detection at 260 nm.
(§2) The new series of S-analogs were subjected to in vitro enzymatic hydrolysis catalyzed by DcpS from both human and C. elegans sources. In all experiments, the corresponding unmodified cap analog was used as a positive control, i.e., m^7GpppG for non-ARCA S-analogs and m2^7,2′-OGpppG for S-ARCAs. The amount of DcpS enzyme was optimized to provide complete degradation of the control substrate within 40-90 min. The samples collected from reaction mixtures at various time intervals were analyzed by RP HPLC (as described in Materials and Methods).
(§3) In Table 4, cap analogs at 4 μM concentration were subjected to enzymatic digestion by DcpS in conditions leading to complete degradation of the unmodified parent compound (i.e. m^7GpppG for non-ARCA S-analogs and m2^7,2′-OGpppG for ARCAs) within 40-90 min. Samples collected from reaction mixtures at various time intervals were analysed by RP HPLC with UV detection at 260 nm as described in Materials and Methods. […] The result was unchanged even if the reaction time was extended to 24 h, various amounts of enzyme were used, and composition of the reaction buffer was modified.

DcpS [2] = biological target: T3, DcpS (Caenorhabditis elegans, UniProt G5EFS4); assay: Enzymatic hydrolysis by C. elegans DcpS; format: biochemical; set-up: key: the analogs assigned as resistant remained completely undigested under the applied conditions; the analogs assigned as hydrolyzed were hydrolyzed by DcpS with efficiency comparable to the respective unmodified parent compound; conditions: conditions giving complete degradation of unmodified parent within 40-90 min, RP HPLC
T3 sequence (G5EFS4 1-311): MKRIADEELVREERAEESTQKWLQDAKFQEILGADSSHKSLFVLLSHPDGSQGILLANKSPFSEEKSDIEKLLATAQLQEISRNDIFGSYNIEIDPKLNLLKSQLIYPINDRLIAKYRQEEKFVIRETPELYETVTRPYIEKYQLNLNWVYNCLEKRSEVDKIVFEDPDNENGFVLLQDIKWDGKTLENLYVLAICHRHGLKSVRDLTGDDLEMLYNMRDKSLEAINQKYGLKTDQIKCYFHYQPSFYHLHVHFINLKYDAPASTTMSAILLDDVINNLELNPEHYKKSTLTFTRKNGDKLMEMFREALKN
Protocol: as §1, §2, §3

## CO[C@@H]1[C@H](O)[C@@H](COP(=O)(O)OP(=O)([O-])OP(=O)(O)OP(=O)(O)OC[C@H]2O[C@@H](n3cnc4c(=O)[nH]c(N)nc43)[C@H](O)[C@@H]2O)O[C@H]1n1c[n+](C)c2c(O)nc(N)nc21 [m^7,2′-OGppppG, reference compound]
Murine eIF4E (28-217)
  KAS: 99.8 ± 6.0 µM⁻¹

## m2^7,2′-OGpppsG
hDcp2
  hydrolysis of capped oligonucleotide by hDcp2: no increase in stability toward hDcp2

## m2^7,2′-OGpsppG
hDcp2
  hydrolysis of capped oligonucleotide by hDcp2: no increase in stability toward hDcp2

## m^7GpppsG (D1) [Compound 1a]
Murine eIF4E (28-217)
  ΔG°: -9.88 ± 0.02 kcal/mol
  KAS: 23.6 ± 0.8 µM⁻¹
DcpS [1]
  Resistance to enzymatic hydrolysis by DcpS (human): hydrolyzed
DcpS [2]
  Resistance to enzymatic hydrolysis by DcpS (from C. elegans): hydrolyzed

## m^7GpppsG (D2) [Compound 1b]
Murine eIF4E (28-217)
  ΔG°: -9.54 ± 0.03 kcal/mol
  KAS: 13.1 ± 0.8 µM⁻¹
DcpS [1]
  Resistance to enzymatic hydrolysis by DcpS (human): hydrolyzed
DcpS [2]
  Resistance to enzymatic hydrolysis by DcpS (from C. elegans): hydrolyzed

## m^7GppspG (D1) [Compound 2a]
Murine eIF4E (28-217)
  ΔG°: -10.26 ± 0.01 kcal/mol
  KAS: 45.0 ± 1.1 µM⁻¹
DcpS [1]
  Resistance to enzymatic hydrolysis by DcpS (human): hydrolyzed
DcpS [2]
  Resistance to enzymatic hydrolysis by DcpS (from C. elegans): hydrolyzed

## m^7GppspG (D2) [Compound 2b]
Murine eIF4E (28-217)
  ΔG°: -9.87 kcal/mol
  KAS: 23.0 ± 0.4 µM⁻¹
DcpS [1]
  Resistance to enzymatic hydrolysis by DcpS (human): hydrolyzed
DcpS [2]
  Resistance to enzymatic hydrolysis by DcpS (from C. elegans): hydrolyzed

## m^7GpsppG (D1) [Compound 3a]
DcpS [1]
  Resistance to enzymatic hydrolysis by DcpS (human): resistant
DcpS [2]
  Resistance to enzymatic hydrolysis by DcpS (from C. elegans): resistant

## m^7GpsppG (D2) [Compound 3b]
DcpS [1]
  Resistance to enzymatic hydrolysis by DcpS (human): resistant
DcpS [2]
  Resistance to enzymatic hydrolysis by DcpS (from C. elegans): resistant
